Measured values as given in PubChem BioAssay (NCI).
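Interpolation was linear, between the two tested concentrations surrounding the appropriate level; five concentrations were tested over 48 hours in 96-well plates. At the TGI there is no net growth.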

Experiments:
Assay in all cases: inhibition of tumour cell growth, NCI panel, 48 h
DMS 114 small cell lung = tested on: DMS 114 small cell lung
HCC-2998 colon = tested on: HCC-2998 colon
HOP-18 NSCLC = tested on: HOP-18 NSCLC
HOP-62 NSCLC = tested on: HOP-62 NSCLC
HT29 colon = tested on: HT29 colon
M14 melanoma = tested on: M14 melanoma
M19-MEL melanoma = tested on: M19-MEL melanoma
OVCAR-3 ovarian = tested on: OVCAR-3 ovarian
SNB-19 CNS = tested on: SNB-19 CNS
SNB-78 CNS = tested on: SNB-78 CNS
SR leukemia = tested on: SR leukemia
UO-31 renal = tested on: UO-31 renal
MCF7 breast = tested on: MCF7 breast
BT-549 breast = tested on: BT-549 breast
DU-145 prostate = tested on: DU-145 prostate
MDA-MB-231 breast = tested on: MDA-MB-231 breast
MDA-MB-435 = tested on: MDA-MB-435
MDA-N = tested on: MDA-N
PC-3 prostate = tested on: PC-3 prostate
T-47D breast = tested on: T-47D breast

| SMILES | TGI (DMS 114 small cell lung) | TGI (HCC-2998 colon) | TGI (HOP-18 NSCLC) | TGI (HOP-62 NSCLC) | TGI (HT29 colon) | TGI (M14 melanoma) | TGI (M19-MEL melanoma) | TGI (OVCAR-3 ovarian) | TGI (SNB-19 CNS) | TGI (SNB-78 CNS) | TGI (SR leukemia) | TGI (UO-31 renal) | TGI (MCF7 breast) | TGI (BT-549 breast) | TGI (DU-145 prostate) | TGI (MDA-MB-231 breast) | TGI (MDA-MB-435) | TGI (MDA-N) | TGI (PC-3 prostate) | TGI (T-47D breast) |
| --- | --- | --- | --- | --- | --- | --- | --- | --- | --- | --- | --- | --- | --- | --- | --- | --- | --- | --- | --- | --- |
| O=C(O)C12CCCCC1CCCC2 (stereo unspecified) | > 100 µM | > 100 µM | > 100 µM | > 100 µM | > 100 µM | > 100 µM | > 100 µM | > 100 µM | > 100 µM |  |  |  |  |  |  |  |  |  |  |  |
| COc1cccc(NC(=O)C(=O)C(C(=O)c2ccccc2F)C2OC(=O)c3ccccc32)c1 (stereo unspecified) |  | 39.2 µM |  | > 100 µM | > 100 µM | > 100 µM | > 100 µM |  | > 100 µM | > 100 µM | 48.5 µM | > 100 µM |  |  |  |  |  |  |  |  |
| CSc1nc2c(ncn2C2OCC(O)C(O)C2O)c(=O)n1C (stereo unspecified) | > 100 µM | > 100 µM | > 100 µM | > 100 µM | > 100 µM |  | > 100 µM | > 100 µM | > 100 µM | > 100 µM |  | > 100 µM | > 100 µM |  |  |  |  |  |  |  |
| COC(=O)C1=C(OC(=O)/C=C/c2ccc(Cl)cc2)C(C(=O)OC)[C@@]2(O)[C@@H](C(=O)OC)[C@H](C)C[C@@H]1[C@@H]2C(=O)OC (stereo partly specified) |  |  |  | > 100 µM | 65.8 µM | > 100 µM |  | > 100 µM | > 100 µM |  |  | 57.1 µM |  | 53.7 µM | > 100 µM | 64.9 µM | > 100 µM | 29.5 µM | 69 µM | > 100 µM |
| COc1cc2c(cc1OC)C(=O)/C(=C/c1cc(OC)c(OC)c(OC)c1)C2 |  |  |  | > 100 µM | > 100 µM | > 100 µM |  | > 100 µM | > 100 µM |  | > 100 µM | > 100 µM | > 100 µM | > 100 µM | > 100 µM | > 100 µM | > 100 µM | > 100 µM | > 100 µM | > 100 µM |
| O=C1C(Cl)N(c2cccc([N+](=O)[O-])c2)C1c1c[nH]c2ccccc12 (stereo unspecified) | 47 µM |  |  | 33.6 µM | 43.7 µM | 33 µM | 42.5 µM | 54.8 µM | 57.8 µM |  | 57 µM | 47.9 µM |  |  |  |  |  |  |  |  |
| COC1(O)c2cccc(Cl)c2C(=O)N1C1(C(N)=O)CCCCC1 (stereo unspecified) | > 100 µM | > 100 µM | > 100 µM | > 100 µM | > 58 µM |  | > 100 µM | > 100 µM | > 100 µM | > 100 µM |  | > 100 µM | > 100 µM |  |  |  |  |  |  |  |
| COc1ccc2[nH]c3c(C)c4ccnc(NCCCN(C)CCCNc5ccc6ncn7c8ccccc8c(=O)c5c67)c4c(C)c3c2c1 |  |  |  | 0.784 µM | 1.03 µM | 2.48 µM |  | 6.56 µM | 3.42 µM |  | 1.61 µM | 4.21 µM | 2.61 µM | 3.99 µM | 4.14 µM | 1.2 µM | 4.45 µM | 4.29 µM | 4.21 µM | 9.46 µM |
| NC12CCC(CC1=O)C2 (stereo unspecified) |  | > 100 µM |  | > 100 µM | > 100 µM | > 100 µM |  | > 100 µM |  |  | > 100 µM | > 100 µM | > 100 µM |  | > 100 µM | > 100 µM | > 100 µM | > 100 µM | > 100 µM | > 100 µM |
